# Publication PMC5665762, “Phase 1 study of veliparib with carboplatin and weekly paclitaxel in Japanese patients with newly diagnosed ovarian cancer” (Cancer Science, 2017)
# What was measured:
# [1] = tested on: Japanese patients with newly diagnosed ovarian cancer; assay: Phase 1 safety/tolerability: treatment-emergent adverse events, DLT, MTD, RP2D
# Procedure: This was a phase 1, open‐label, multicenter, dose‐escalation study to evaluate the tolerability, safety, PK and preliminary efficacy of oral veliparib in combination with carboplatin and weekly paclitaxel in Japanese patients with ovarian cancer. Patients were assigned to treatment with veliparib at either 100 mg (dose level 1 [DL1]) or 150 mg (DL2) b.i.d. on days 1–21 of a 21‐day cycle. […] After completion of cycle 1, subsequent cycles were not begun until the patient's ANC was ≥1500/mm^3 and the platelet count ≥100 000/mm^3. Patients with ANC 1000–1499/mm^3 or platelet count 75 000–99 000/mm^3 (or both) could proceed to the next cycle of therapy with a predefined dose modification (Table S1). On day 8 or 15 of each cycle, another dose modification guideline was applied (Table S2). The patient's participation in the study was discontinued upon the third occurrence of hematologic toxicity that required dose modification per protocol. Treatment could be postponed for up to 21 days because of toxicity; longer toxicity‐related delay led to study discontinuation. Reduction of carboplatin and paclitaxel doses was permitted based on the toxicity observed (Table S3), which could necessitate discontinuation of either agent. At the investigator's discretion, patients who discontinued veliparib were […] to discontinue the study but could continue to receive carboplatin and paclitaxel as standard of care. The trial was conducted in accordance with good clinical practice, the International Conference on Harmonization guidelines, and the 1964 Declaration of Helsinki and its later amendments; written informed consent was obtained from all patients before study enrollment.
# Dose escalation proceeded according to a 3 + 3 design to determine dose‐limiting toxicities (DLT), the maximum tolerated dose (MTD) and the RP2D. A minimum of 3 patients were enrolled at DL1. If none of these patients experienced a DLT, 3 more patients would be enrolled at DL2. If 1 or 2 patients experienced a DLT at DL1, 3 more patients would be enrolled at the same dose level. If ≤2 of 6 patients experienced a DLT, dose escalation would proceed to DL2. If ≥3 patients experienced a DLT, dose escalation would be stopped, with the following exceptions: (i) if 3 of 6 patients at DL1 experienced DLT, 3 more patients would enter the DL and the cohort be expanded to 9 patients, depending on a review of the specific DLT observed and discussion with the investigators; and (ii) if 3 of 9 patients at DL1 experienced DLT, escalation to DL2 would proceed, but if >3 of 9 patients experienced DLT, then dose escalation would stop.
# Dose‐limiting toxicities were determined based on events that occurred during the DLT evaluation period from day 1 of cycle 1 through pre‐dosing on day 1 of cycle 2. A patient was considered to be evaluable for DLT assessment if they had completed cycle 1 with the assigned regimen or had prematurely discontinued cycle 1 or experienced an adverse event (AE) related to veliparib. AE that occurred after the DLT evaluation period were considered in dose‐escalation decisions and tolerability assessment. The MTD was defined as the highest dose level at which ≤2 of 6 or ≤3 of 9 patients experienced a DLT. The RP2D was determined on the basis of assessment of the observed toxicities, the MTD, the overall safety profile of the regimen, and the PK of veliparib. In the event that the MTD was not reached, the RP2D was to be defined on the basis of safety and PK data and would not be higher than the maximum administered dose. Any of the following events that were considered to have a reasonable possibility of being related to the administration of veliparib were defined as DLT: grade 4 neutropenia lasting more than 7 days; grade 4 thrombocytopenia; febrile neutropenia; any grade ≥3 nonhematologic toxicities except nausea, vomiting and diarrhea; and transient metabolic toxicities such as glucose changes, hypokalemia or hypophosphatemia.
# [2] = Plasma pharmacokinetics on day 1 of cycle 1 (noncompartmental); set-up: AUC(0-inf): dose or concentration left out as unconfirmed
# Procedure: (§1) During the screening visit, a complete medical history (including a detailed oncology history) was collected. Study visits occurred on days 1, 8 and 15 of cycle 1 and each subsequent cycle; patients also attended for a final visit and a 30‐day follow‐up visit. AE monitoring was performed at each visit; most visits also included a physical examination and ECOG performance status evaluation. Toxicities were graded according to the NCI Common Terminology Criteria for Adverse Events version 4.03. For the determination of veliparib, carboplatin and paclitaxel PK, plasma samples were collected at multiple time points within 24 h of the first morning dose of veliparib on day 1 of cycle 1. The PK of carboplatin and paclitaxel were evaluated only with veliparib co‐administration. Values of the PK parameters of veliparib, carboplatin and paclitaxel, including the maximum observed plasma concentration (C max), time to C max (T max) and AUC, were determined by using noncompartmental methods. In addition to tumor assessment at baseline, tumor response was assessed by using the Response Evaluation Criteria In Solid Tumors (RECIST) version 1.113 every 9 weeks from day 1 of cycle 1 and at the final visit. The tumor marker cancer antigen 125 (CA‐125) was evaluated on day 1 of each cycle and at the final visit.
# [3] = tested on: target lesions, ovarian cancer; assay: Tumor response by RECIST version 1.1; format: in vivo, Japanese patients
# Procedure: as §1
# [4] = tested on: non‐small cell lung cancer; set-up: method as in PMID 26433581; conditions: veliparib with carboplatin/paclitaxel, Japanese NSCLC patients, no more than 1 prior line of treatment; cited from earlier work
# [5] = tested on: CA‐125; assay: Tumor marker CA-125 response (Gynecologic Cancer InterGroup definition); format: in vivo, Japanese patients
# Procedure: as §1
# [6] = Total (both veliparib doses) + carboplatin/paclitaxel, N = 9, All grades
# [7] = Total (both veliparib doses) + carboplatin/paclitaxel, N = 9, Grade 3 or 4
# [8] = all 9 patients, regardless of relation to veliparib
# [9] = veliparib 100 mg BID + carboplatin/paclitaxel, n = 3, All grades
# [10] = veliparib 150 mg BID + carboplatin/paclitaxel, n = 6, All grades
# [11] = veliparib dose 100 mg, day 1 of cycle 1, N 3, mean ± SD
# [12] = veliparib dose 150 mg, day 1 of cycle 1, N 6, mean ± SD
smiles,measurement,setting,value
C[C@]1(c2nc3c(C(N)=O)cccc3[nH]2)CCCN1 [Veliparib],"Nail disorder, TEAE",[1]; [6],2 (22) n (%)
same,"Nausea, TEAE",[1]; [6],6 (67) n (%)
same,"Neutropenia (including neutrophil count decreased), TEAE",[1]; [6],9 (100) n (%)
same,"Peripheral sensory neuropathy (including neuropathy peripheral), TEAE",[1]; [6],7 (78) n (%)
same,"Rash, TEAE",[1]; [6],2 (22) n (%)
same,"Stomatitis, TEAE",[1]; [6],2 (22) n (%)
same,"Thrombocytopenia (including platelet count decreased), TEAE",[1]; [6],5 (56) n (%)
same,"Vomiting, TEAE",[1]; [6],4 (44) n (%)
same,"Alopecia, TEAE",[1]; [7],0 n (%)
same,"Anemia, TEAE",[1]; [7],5 (56) n (%)
same,"Any AE, TEAE",[1]; [7],7 (78) n (%)
same,"Arthralgia, TEAE",[1]; [7],0 n (%)
same,"Constipation, TEAE",[1]; [7],0 n (%)
same,"Decreased appetite, TEAE",[1]; [7],0 n (%)
same,"Dry skin, TEAE",[1]; [7],0 n (%)
same,"Dysgeusia, TEAE",[1]; [7],0 n (%)
same,"Leukopenia (including white blood cell count decreased), TEAE",[1]; [7],4 (44) n (%)
same,"Malaise, TEAE",[1]; [7],0 n (%)
same,"Nail disorder, TEAE",[1]; [7],0 n (%)
same,"Nasopharyngitis, TEAE",[1]; [7],0 n (%)
same,"Nausea, TEAE",[1]; [7],0 n (%)
same,"Neutropenia (including neutrophil count decreased), TEAE",[1]; [7],7 (78) n (%)
same,"Peripheral sensory neuropathy (including neuropathy peripheral), TEAE",[1]; [7],0 n (%)
same,"Rash, TEAE",[1]; [7],0 n (%)
same,"Stomatitis, TEAE",[1]; [7],0 n (%)
same,"Vomiting, TEAE",[1]; [7],0 n (%)
same,AE that led to death,[1]; all 9 patients,no AE that led to death
same,"alopecia, TEAE of any grade",[1]; [8],89%
same,"anemia, TEAE of any grade",[1]; [8],67%
same,"anemia, grade 3 or 4 TEAE",[1]; [8],56%
same,"malaise, TEAE of any grade",[1]; [8],67%
same,"nausea, TEAE of any grade",[1]; [8],67%
same,"neutropenia, TEAE of any grade",[1]; [8],100%
same,"neutropenia, grade 3 or 4 TEAE","[1]; female, human, in vivo",78%
same,"peripheral sensory neuropathy, TEAE of any grade","[1]; female, human, in vivo",78%
same,recommended phase 2 dose (RP2D),"[1]; in combination with carboplatin and weekly paclitaxel, determined on safety and PK data",150 mg b.i.d.
same,dose‐limiting toxicities (DLT),[1]; in vivo,No DLT were observed at any dose level
same,veliparib dose reduction,[1]; in vivo,No patient needed a veliparib dose reduction
same,veliparib discontinued because of a TEAE,"[1]; overall, 6 of 9 patients",67%
same,"Alopecia, TEAE",[1]; [9],3 (100) n (%)
same,"Anemia, TEAE",[1]; [9],2 (67) n (%)
same,"Alopecia, TEAE",[1]; [10],5 (83) n (%)
same,"Anemia, TEAE",[1]; [10],4 (67) n (%)
same,maximum tolerated dose (MTD) of the regimen,[1]; veliparib up to 150 mg b.i.d. with carboplatin and weekly paclitaxel,not reached
same,PK interaction between veliparib and carboplatin or paclitaxel,[2]; cross‐study comparison,no PK interaction
same,AUC0–8/dose,[2]; [11],37.2 ± 4.37 ng·h/mL/mg
same,C max/dose,[2]; [11],9.73 ± 1.63 ng/mL/mg
same,AUC0–8/dose,[2]; [12],36.7 ± 8.10 ng·h/mL/mg
same,C max/dose,[2]; [12],7.19 ± 1.16 ng/mL/mg
same,objective response rate,"[3]; 5 assessed patients, veliparib plus carboplatin and paclitaxel",100%
same,partial response,"[3]; both cohorts, of 5 assessed patients",4 patients
same,median best percentage change from baseline in the sum of target lesions,"[3]; overall, range −100.00% to −50.00%",−53.51%
same,partial response,[3]; veliparib 100 mg b.i.d.,1 patients
same,complete response,"[3]; veliparib 100 mg b.i.d. cohort, of 5 assessed patients",One patient had a complete response
same,median best percentage change from baseline in the sum of target lesions,"[3]; veliparib 100 mg b.i.d. cohort, range −100.00% to −53.51%",−76.75%
same,partial response,[3]; veliparib 150 mg b.i.d.,3 patients
same,median best percentage change from baseline in the sum of target lesions,"[3]; veliparib 150 mg b.i.d. cohort, range −90.29% to −50.00%",−51.57%
same,objective response rate,[4],55%
same,CA‐125 response (Gynecologic Cancer InterGroup definition),[5]; 8 of 9 patients,89%
same,median best percentage change from baseline in CA‐125,"[5]; overall, range −99.79% to −34.96%",−89.33%
same,median best percentage change from baseline in CA‐125,"[5]; veliparib 100 mg b.i.d. cohort, range −97.31% to −65.25%",−94.24%
same,median best percentage change from baseline in CA‐125,"[5]; veliparib 150 mg b.i.d. cohort, range −99.79% to −34.96%",−84.87%
N.N.O=C([O-])C1(C(=O)[O-])CCC1.[Pt+2] [carboplatin],patients needing ≥1 carboplatin dose reduction,"[1]; 7 of 9, beginning at cycle 2, due to hematologic toxicities",78%
same,C max,"[2]; carboplatin measured as total platinum, AUC 6 mg/mL•min i.v. day 1 with veliparib, mean (SD)",23.3 (4.28) μg/mL
same,AUC from time zero to infinity (AUC∞),"[2]; carboplatin measured as total platinum, i.v. day 1 with veliparib, mean (SD)",5.30 (0.491) mg•min/mL
CC(=O)O[C@H]1C(=O)[C@@]2(C)[C@H]([C@H](OC(=O)c3ccccc3)[C@]3(O)C[C@H](OC(=O)[C@H](O)[C@@H](NC(=O)c4ccccc4)c4ccccc4)C(C)=C1C3(C)C)[C@]1(OC(C)=O)CO[C@@H]1C[C@@H]2O [paclitaxel],AUC(0-inf),"[2]; female, human, in vivo",5320 ng·h/mL
same,Cmax,"[2]; female, human, in vivo",3300 ng/mL
